Laboratory results taken from ChEMBL document CHEMBL5034009, “Second-Generation Dual FXR/sEH Modulators with Optimized Pharmacokinetics” (J Med Chem, 2021).
Converted amounts (≈) assume the structure as drawn. The source made the active and inactive calls. The calls are words filed in the database; no cut-off is given here.

What was measured:
[1] = Metabolic stability in Sprague-Dawley rat liver microsomes assessed as half life at 10 uM preincubated with NADPH regenerating system for 5 mins followed by addition of microsome upto 60 mins by HPLC analysis; assay type: ADME
[2] = molecular target: T1, Bifunctional epoxide hydrolase 2 (Homo sapiens, UniProt P34913); assay: Inhibition of recombinant human sEH using PHOME as substrate preincubated for 30 mins followed by substrate addition and measured after 30 mins by fluoresence-based assay
T1 sequence (P34913 whole entry): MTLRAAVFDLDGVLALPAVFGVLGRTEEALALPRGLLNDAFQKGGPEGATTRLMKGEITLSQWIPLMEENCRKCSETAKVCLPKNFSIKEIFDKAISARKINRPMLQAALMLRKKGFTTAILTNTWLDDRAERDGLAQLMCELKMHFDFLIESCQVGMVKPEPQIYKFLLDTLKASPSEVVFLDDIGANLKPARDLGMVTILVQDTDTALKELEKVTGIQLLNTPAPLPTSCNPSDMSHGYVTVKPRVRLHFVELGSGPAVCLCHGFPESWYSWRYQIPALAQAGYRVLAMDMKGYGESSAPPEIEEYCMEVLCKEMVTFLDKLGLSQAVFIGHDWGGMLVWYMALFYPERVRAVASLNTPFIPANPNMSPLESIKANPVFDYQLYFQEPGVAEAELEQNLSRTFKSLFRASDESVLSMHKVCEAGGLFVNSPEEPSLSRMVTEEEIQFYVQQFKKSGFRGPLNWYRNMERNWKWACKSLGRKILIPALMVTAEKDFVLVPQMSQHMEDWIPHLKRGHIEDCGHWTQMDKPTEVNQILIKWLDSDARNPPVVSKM

[3] = Metabolic stability in Sprague-Dawley rat liver microsomes assessed as intrinsic clearance at 10 uM preincubated with NADPH regenerating system for 5 mins followed by addition of microsome upto 60 mins by HPLC analysis; assay type: ADME; conditions: read-out: CLH
[4] = molecular target: T2, Bile acid receptor (Homo sapiens) (UniProt Q96RI1); assay: Agonist activity at recombinant human full-length FXR expressed in HeLa cells co-expressing human RXRalpha at 30 uM after 24 hrs by Dual-Glo luciferase assay; assay type: cell-based
T2 sequence (whole entry): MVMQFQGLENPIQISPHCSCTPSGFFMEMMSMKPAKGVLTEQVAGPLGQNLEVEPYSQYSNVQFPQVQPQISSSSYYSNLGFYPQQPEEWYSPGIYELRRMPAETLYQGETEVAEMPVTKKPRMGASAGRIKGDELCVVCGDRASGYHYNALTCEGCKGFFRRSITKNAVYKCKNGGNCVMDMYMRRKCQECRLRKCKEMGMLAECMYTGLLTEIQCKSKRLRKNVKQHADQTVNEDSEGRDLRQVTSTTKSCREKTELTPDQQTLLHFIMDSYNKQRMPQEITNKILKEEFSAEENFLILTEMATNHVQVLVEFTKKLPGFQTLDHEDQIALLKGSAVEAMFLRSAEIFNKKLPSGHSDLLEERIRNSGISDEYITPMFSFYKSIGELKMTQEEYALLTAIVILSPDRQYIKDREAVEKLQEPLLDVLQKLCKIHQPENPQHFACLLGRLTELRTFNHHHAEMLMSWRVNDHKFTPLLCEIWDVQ

Bile acid receptor [5] = molecular target: T3, Bile acid receptor (Homo sapiens, UniProt Q96RI1)
T3 sequence (Q96RI1 whole entry): T2 sequence (whole entry)
Description: (§1) Agonist activity at recombinant human full-length FXR expressed in HeLa cells co-expressing human RXRalpha after 24 hrs by Dual-Glo luciferase assay

[6] = Tmax in CD-1 mouse plasma at 10 mg/kg, po administered as single dose by LC-MS analysis; assay type: ADME, organism-based
[7] = Cmax in CD-1 mouse plasma at 10 mg/kg, po administered as single dose by LC-MS analysis; assay type: ADME, organism-based; set-up: route oral, dose 10 mg/kg
[8] = Half life in CD-1 mouse plasma at 10 mg/kg, po administered as single dose by LC-MS analysis; assay type: ADME, organism-based
[9] = Aqueous solubility of compound; assay type: physicochemical; conditions: buffer
HepG2 [10] = assay: Cytotoxicity against human HepG2 cells assessed as cell viability at 100 uM by WST-1 assay; assay type: cell-based; conditions: hepg2, 100 µM
HepG2 [11] = assay: Effect on FXR regulated gene expression in human HepG2 cells assessed as induction of SREBP1c expression at 1 uM after 8 hrs by qRT-PCR analysis
HepG2 [12] = assay: Effect on FXR regulated gene expression in human HepG2 cells assessed as induction of PPARalpha expression at 1 uM after 8 hrs by qRT-PCR analysis
Bile acid receptor [13] = molecular target: T3, Bile acid receptor; conditions: hela
Description: as §1

Structure (SMILES): CS(=O)(=O)Nc1ccc(CNC(=O)c2ccc(S(F)(F)(F)(F)F)cc2)c(Cl)c1
- half-life at 10 µM [1]: 2.3 h
- IC50 [2]: 10 nM
- microsomal CLint at 10 µM [3]: 9.8 µL/min/mg
- Activity [4]: inactive

Structure (SMILES): CC(C)(C)c1ccc(C(=O)NCc2c(Cl)cc(NS(C)(=O)=O)cc2Cl)cc1
- half-life at 10 µM [1]: 1.37 h
- IC50 [2]: 268 nM
- microsomal CLint at 10 µM [3]: 16 µL/min/mg
- Activity [4]: inactive

Structure (SMILES): CC(C)(C)c1ccc(C(=O)NCc2c(F)cc(NS(C)(=O)=O)cc2F)cc1
- half-life at 10 µM [1]: 2.42 h
- IC50 [2]: 85 nM
- microsomal CLint at 10 µM [3]: 9.3 µL/min/mg
- Activity [4]: inactive

Structure (SMILES): CC(F)(F)c1ccc(C(=O)NCc2ccc(NS(C)(=O)=O)cc2Cl)cc1
- half-life at 10 µM [1]: 2.35 h
- IC50 [2]: 2 nM
- EC50 (Bile acid receptor [5]): 1200 nM
- microsomal CLint at 10 µM [3]: 9.6 µL/min/mg

Structure (SMILES): COc1ccc(C(=O)NCc2ccc(NS(C)(=O)=O)cc2Cl)cc1
- half-life at 10 µM [1]: 4.5 h
- IC50 [2]: 38 nM
- microsomal CLint at 10 µM [3]: 5 µL/min/mg
- Activity [4]: inactive

Structure (SMILES): CN(C)c1ccc(C(=O)NCc2ccc(NS(C)(=O)=O)cc2Cl)cc1
- half-life at 10 µM [1]: 0.883 h
- microsomal CLint at 10 µM [3]: 25 µL/min/mg

Structure (SMILES): CS(=O)(=O)Nc1ccc(CNC(=O)c2ccc(C(F)(F)F)cc2)c(Cl)c1
- Tmax [6]: 1 h
- Cmax [7]: 4930 ng/mL
- half-life [8]: 5.2 h
- half-life at 10 µM [1]: 2.43 h
- solubility [9]: 5.7 µg/mL (≈ 14 µM)
- IC50 [2]: 7 nM
- Activity (HepG2 [10]): Non-Toxic
- microsomal CLint at 10 µM [3]: 9.6 µL/min/mg

Structure (SMILES): COC(C)(C)c1ccc(C(=O)NCc2ccc(NS(C)(=O)=O)cc2Cl)cc1
- half-life at 10 µM [1]: 0.917 h
- IC50 [2]: 9 nM
- microsomal CLint at 10 µM [3]: 24 µL/min/mg
- Activity [4]: inactive

Structure (SMILES): CS(=O)(=O)Nc1ccc(CNC(=O)c2ccc(N3CCCCC3)cc2)c(Cl)c1
- half-life at 10 µM [1]: 1.12 h
- IC50 [2]: 71 nM
- EC50 (Bile acid receptor [5]): 410 nM
- microsomal CLint at 10 µM [3]: 20 µL/min/mg

Structure (SMILES): CC(C)S(=O)(=O)Nc1ccc(CNC(=O)c2ccc(C(C)(C)C)cc2)c(Cl)c1
- half-life at 10 µM [1]: 0.983 h
- IC50 [2]: 11.2 nM
- microsomal CLint at 10 µM [3]: 23 µL/min/mg

Structure (SMILES): CS(=O)(=O)Nc1ccc(CNC(=O)c2ccc(C(F)(F)C(F)(F)F)cc2)c(Cl)c1
- half-life at 10 µM [1]: 1.6 h
- IC50 [2]: 4 nM
- EC50 (Bile acid receptor [5]): 3220 nM
- microsomal CLint at 10 µM [3]: 14 µL/min/mg

Structure (SMILES): CCOc1ccc(C(=O)NCc2ccc(NS(C)(=O)=O)cc2Cl)cc1
- half-life at 10 µM [1]: 1.8 h
- IC50 [2]: 31 nM
- EC50 (Bile acid receptor [5]): 2200 nM
- microsomal CLint at 10 µM [3]: 12 µL/min/mg

Structure (SMILES): CC(C)(O)c1ccc(C(=O)NCc2ccc(NS(C)(=O)=O)cc2Cl)cc1
- half-life at 10 µM [1]: 20.2 h
- Activity (HepG2 [11]): inactive
- Activity (HepG2 [12]): inactive
- solubility [9]: 48 µg/mL (≈ 121 µM)
- IC50 [2]: 170 nM
- EC50 (Bile acid receptor [5]): 32 nM
- Activity (HepG2 [10]): Non-Toxic
- microsomal CLint at 10 µM [3]: 1.5 µL/min/mg

Structure (SMILES): CS(=O)(=O)Nc1ccc(CNC(=O)c2ccc(C3(O)CC3)cc2)c(Cl)c1
- EC50 (Bile acid receptor [13]): Nd(Unstable)

Structure (SMILES): CS(=O)(=O)Nc1ccc(CNC(=O)c2ccc(C3(O)COC3)cc2)c(Cl)c1
- half-life at 10 µM [1]: 4.23 h
- IC50 [2]: 111 nM
- microsomal CLint at 10 µM [3]: 5.4 µL/min/mg
- Activity [4]: inactive

Structure (SMILES): CC(C)Oc1ccc(C(=O)NCc2ccc(NS(C)(=O)=O)cc2Cl)cc1
- half-life at 10 µM [1]: 1.85 h
- IC50 [2]: 12 nM
- EC50 (Bile acid receptor [5]): 400 nM
- microsomal CLint at 10 µM [3]: 12 µL/min/mg

Structure (SMILES): CC(C)(C)c1ccc(C(=O)NCc2ccc(NS(=O)(=O)C(F)(F)F)cc2Cl)cc1
- half-life at 10 µM [1]: 1.3 h
- IC50 [2]: 21 nM
- microsomal CLint at 10 µM [3]: 17 µL/min/mg
- Activity [4]: inactive

Structure (SMILES): CS(=O)(=O)Nc1ccc(CNC(=O)c2ccc(OC(F)(F)F)cc2)c(Cl)c1
- half-life at 10 µM [1]: 2.47 h
- IC50 [2]: 22 nM
- EC50 (Bile acid receptor [5]): 1090 nM
- microsomal CLint at 10 µM [3]: 9.1 µL/min/mg

Structure (SMILES): CS(=O)(=O)Nc1ccc(CNC(=O)c2ccc(C34CC(C3)C4)cc2)c(Cl)c1
- half-life at 10 µM [1]: 1.35 h
- IC50 [2]: 49 nM
- EC50 (Bile acid receptor [5]): 560 nM
- microsomal CLint at 10 µM [3]: 17 µL/min/mg

Structure (SMILES): CC(C)(C)c1ccc(C(=O)NCc2ccc(NS(C)(=O)=O)cc2Cl)cc1
- half-life at 10 µM [1]: 1.08 h
- microsomal CLint at 10 µM [3]: 21 µL/min/mg

Structure (SMILES): CS(=O)(=O)Nc1ccc(CNC(=O)c2ccc(N3CCOCC3)cc2)c(Cl)c1
- half-life at 10 µM [1]: 5.72 h
- IC50 [2]: 175 nM
- EC50 (Bile acid receptor [5]): 4400 nM
- microsomal CLint at 10 µM [3]: 4.1 µL/min/mg

Structure (SMILES): CS(=O)(=O)Nc1ccc(CNC(=O)c2ccc(N3CCC3)cc2)c(Cl)c1
- half-life at 10 µM [1]: 2.62 h
- IC50 [2]: 94 nM
- EC50 (Bile acid receptor [5]): 13000 nM
- microsomal CLint at 10 µM [3]: 8.6 µL/min/mg

Structure (SMILES): CC(C)(C)c1ccc(C(=O)NCc2ccc(N)cc2Cl)cc1
- EC50 (Bile acid receptor [5]): 40 nM

Structure (SMILES): CS(=O)(=O)Nc1ccc(CNC(=O)c2ccc(C3(C(F)(F)F)CC3)cc2)c(Cl)c1
- half-life at 10 µM [1]: 3.03 h
- solubility [9]: 2.9 µg/mL (≈ 6.49 µM)
- IC50 [2]: 4.3 nM
- Activity (HepG2 [10]): Non-Toxic
- microsomal CLint at 10 µM [3]: 7.5 µL/min/mg

Structure (SMILES): CC(C)(C)c1ccc(C(=O)NCc2ccc(NS(=O)(=O)C3CC3)cc2Cl)cc1
- half-life at 10 µM [1]: 0.55 h
- IC50 [2]: 7.8 nM
- EC50 (Bile acid receptor [5]): 1500 nM
- microsomal CLint at 10 µM [3]: 41 µL/min/mg

Structure (SMILES): CCS(=O)(=O)Nc1ccc(CNC(=O)c2ccc(C(C)(C)C)cc2)c(Cl)c1
- half-life at 10 µM [1]: 0.783 h
- IC50 [2]: 6.1 nM
- EC50 (Bile acid receptor [5]): 500 nM
- microsomal CLint at 10 µM [3]: 28 µL/min/mg

Structure (SMILES): CC(C)(C)c1ccc(C(=O)NCc2ccc(NS(C)(=O)=O)cc2F)cc1
- half-life at 10 µM [1]: 0.483 h
- IC50 [2]: 16 nM
- microsomal CLint at 10 µM [3]: 47 µL/min/mg
- Activity [4]: inactive

Structure (SMILES): CS(=O)(=O)Nc1ccc(CNC(=O)c2ccc(CC(F)(F)F)cc2)c(Cl)c1
- half-life at 10 µM [1]: 1.03 h
- IC50 [2]: 13 nM
- EC50 (Bile acid receptor [5]): 4000 nM
- microsomal CLint at 10 µM [3]: 22 µL/min/mg

Structure (SMILES): CS(=O)(=O)Nc1ccc(CNC(=O)c2ccc(N3CCCC3)cc2)c(Cl)c1
- half-life at 10 µM [1]: 1.28 h
- microsomal CLint at 10 µM [3]: 17 µL/min/mg
